The text below walks through data of patent US20200371122A1, “BIOMARKER FOR SENESCENT CELLS” (Buck Institute for Research on Aging, priority 2017, published 2020).

The test system of experiment [1] is SASP factors. Description: qPCR of SASP and PTGS mRNAs in non-senescent cells treated with eicosanoids. In kind it is cell-based, human. The conditions noted are these: 10 μM, for PGJ2 and 15d-PGJ2 most factors except VEGF and PDGF. The procedure:
RNA was extracted from cells or tissues using commercially available kits (Isolate II—Bioline for cells; Direct-zol—Zymo for tissues) according to the manufacturer's instructions. cDNA synthesis was performed using a High Capacity cDNA Reverse Transcription Kit (Thermo Fisher) according to the manufacturer's instructions. Quantitative PCR was performed on a LightCycler 480 II (Roche) using primers and probes designed for the Universal Probe Library. Primers and probes used for human transcripts were ACTB: 5′-CCAACCGCGAGAAGATGA (SEQ ID NO:1), 5′-TCCATCACGATGCCAGTG (SEQ ID NO:2), Probe #64; TUBA: 5′-cttcgtctccgccatcag (SEQ ID NO:3), 5′-ttgccaatctggacacca (SEQ ID NO:4), Probe #58; ALOX5: 5′-[…] (SEQ ID NO:5), 5′-[…] (SEQ ID NO:6), Probe #64; ALOX5AP: 5′-ggtctgcggggctacttt (SEQ ID NO:7), 5′-[…] (SEQ ID NO:8), Probe #18; ALOX12: 5′-[…] (SEQ ID NO:9), 5′-agccaggtcgtcaggag (SEQ ID NO:10), Probe #32; ALOX15: 5′-[…] (SEQ ID NO:11), 5′-[…] (SEQ ID NO:12), Probe #76; ALOX15B: 5′-[…] (SEQ ID NO:13), 5′-actgggaggcgaagaagg (SEQ ID NO:14), Probe #51; AKR1C1: 5′-catgcctgtcctgggattt (SEQ ID NO:15), 5′-[…] (SEQ ID NO:16), Probe #49; AKR1C2: 5′-ctatgcgcctgcagaggt (SEQ ID NO:17), 5′-[…] (SEQ ID NO:18), Probe #31; AKR1C3: 5′-[…] (SEQ ID NO:19), 5′-[…] (SEQ ID NO:20), Probe #78; CYSLTR2: 5′-[…] (SEQ ID NO:21), 5′-[…] (SEQ ID NO:22), Probe #18; DPEP1: 5′-gacgtcctgaggctggtg (SEQ ID NO:23), 5′-[…] (SEQ ID NO:24), Probe #9 (SEQ ID NO:25), ELOVL2: 5′-[…] (SEQ ID NO:26), 5′-[…] (SEQ ID NO:27), Probe #53; ELOVL4: 5′-catttggcccatggattc (SEQ ID NO:28), 5′-[…] (SEQ ID NO:29), Probe #31; ELOVL5: 5′-cccttccatgcgtccata (SEQ ID NO:30), 5′-[…] (SEQ ID NO:31), Probe #31; EPHX2: 5′-ttctgctggacaccctgaa (SEQ ID NO:32), 5′-[…] (SEQ ID NO:33), Probe #45; GPX4: 5′-ttcccgtgtaaccagttcg (SEQ ID NO:34), 5′-[…] (SEQ ID NO:35), Probe #36; LTA4H: 5′-ctgctctcacggtccagtc (SEQ ID NO:36), 5′-[…] (SEQ ID NO:37), Probe #64; LTBR2: 5′-[…] (SEQ ID NO:38), 5′-[…] (SEQ ID NO:39), Probe #33; LTC4S: 5′-[…] (SEQ ID NO:40), 5′-[…] (SEQ ID NO:41), Probe #18; PTGDS: 5′-[…] (SEQ ID NO:42), 5′-[…] […]
On the technique in general: Quantitative PCR measures a nucleic acid by following its amplification.

Experiment [2] has as its system IMR-90 fibroblasts. Description: Induction of senescence in non-senescent cells by prostaglandins or 5-LOX pathway products (EdU, SA-B-gal, p21, immunoblot). In kind it is cell-based, human. The conditions noted are these: 10 μM, 10 days. The protocol: RNA was extracted from cells or tissues using commercially available kits (Isolate II—Bioline for cells; Direct-zol—Zymo for tissues) according to the manufacturer's instructions. cDNA synthesis was performed using a High Capacity cDNA Reverse Transcription Kit (Thermo Fisher) according to the manufacturer's instructions. Quantitative PCR was performed on a LightCycler 480 II (Roche) using primers and probes designed for the Universal Probe Library. Primers and probes used for human transcripts were ACTB: 5′-CCAACCGCGAGAAGATGA (SEQ ID NO:1), 5′-TCCATCACGATGCCAGTG (SEQ ID NO:2), Probe #64; TUBA: 5′-cttcgtctccgccatcag (SEQ ID NO:3), 5′-ttgccaatctggacacca (SEQ ID NO:4), Probe #58; ALOX5: 5′-[…] (SEQ ID NO:5), 5′-[…] (SEQ ID NO:6), Probe #64; ALOX5AP: 5′-ggtctgcggggctacttt (SEQ ID NO:7), 5′-[…] (SEQ ID NO:8), Probe #18; ALOX12: 5′-[…] (SEQ ID NO:9), 5′-agccaggtcgtcaggag (SEQ ID NO:10), Probe #32; ALOX15: 5′-[…] (SEQ ID NO:11), 5′-[…] (SEQ ID NO:12), Probe #76; ALOX15B: 5′-[…] (SEQ ID NO:13), 5′-actgggaggcgaagaagg (SEQ ID NO:14), Probe #51; AKR1C1: 5′-catgcctgtcctgggattt (SEQ ID NO:15), 5′-[…] (SEQ ID NO:16), Probe #49; AKR1C2: 5′-ctatgcgcctgcagaggt (SEQ ID NO:17), 5′-[…] (SEQ ID NO:18), Probe #31; AKR1C3: 5′-[…] (SEQ ID NO:19), 5′-[…] (SEQ ID NO:20), Probe #78; CYSLTR2: 5′-[…] (SEQ ID NO:21), 5′-[…] (SEQ ID NO:22), Probe #18; DPEP1: 5′-gacgtcctgaggctggtg (SEQ ID NO:23), 5′-[…] (SEQ ID NO:24), Probe #9 (SEQ ID NO:25), ELOVL2: 5′-[…] (SEQ ID NO:26), 5′-[…] (SEQ ID NO:27), Probe #53; ELOVL4: 5′-catttggcccatggattc (SEQ ID NO:28), 5′-[…] (SEQ ID NO:29), Probe #31; ELOVL5: 5′-cccttccatgcgtccata (SEQ ID NO:30), 5′-[…] (SEQ ID NO:31), Probe #31; EPHX2: 5′-ttctgctggacaccctgaa (SEQ ID NO:32), 5′-[…] (SEQ ID NO:33), Probe #45; GPX4: 5′-ttcccgtgtaaccagttcg (SEQ ID NO:34), 5′-[…] (SEQ ID NO:35), Probe #36; LTA4H: 5′-ctgctctcacggtccagtc (SEQ ID NO:36), 5′-[…] (SEQ ID NO:37), Probe #64; LTBR2: 5′-[…] (SEQ ID NO:38), 5′-[…] (SEQ ID NO:39), Probe #33; LTC4S: 5′-[…] (SEQ ID NO:40), 5′-[…] (SEQ ID NO:41), Probe #18; PTGDS: 5′-[…] (SEQ ID NO:42), 5′-[…] (SEQ ID NO:43), Probe #36; PTGES: 5′-agagatgcctgcccacag (SEQ ID NO:44), 5′-tggccaccacgtacatctt (SEQ ID NO:45), Probe #4; PTGES2: 5′-[…] (SEQ ID NO:46), 5′-[…] (SEQ ID NO:47), Probe #49; PTGES3 (SEQ ID NO:48), 5′-[…] (SEQ ID NO:49), 5′-[…] (SEQ ID NO:50), Probe #48; PTGIS: 5′-[…] (SEQ ID NO:51), 5′-[…] (SEQ ID NO:52), Probe #45; PTGR1: 5′-atgatggggcagcaagtg (SEQ ID NO:53), 5′-cccatcagaaatggagtgc (SEQ ID NO:54), Probe #64; PTGS1: 5′-[…] (SEQ ID NO:55), 5′-gtggtggtccatgttcctg (SEQ ID NO:56), Probe #81; PTGS2: 5′-gatccccagggctcaaac (SEQ ID NO:57), 5′-[…] (SEQ ID NO:58), Probe #61; TBXAS1: 5′-[…] (SEQ ID NO:59), 5′-tgcctcccgtgtgaatct (SEQ ID NO:60), Probe #73; AREG: 5′-[…] (SEQ ID NO:61), 5′-[…] (SEQ ID NO:62), Probe #73; CCL2: 5′-AGTCTCTGCCGCCCTTCT (SEQ ID NO:63), 5′-GTGACTGGGGCATTGATTG (SEQ ID NO:64), Probe #40; CCL27: 5′-[…] (SEQ ID NO:65), 5′-gctgggtggcagtaggaat (SEQ ID NO:66), Probe #18; CXCL1: 5′-[…] (SEQ ID NO:67), 5′-[…] (SEQ ID NO:68), Probe #52; HGF: 5′-[…] (SEQ ID NO:69), 5′-[…] (SEQ ID NO:70), Probe #49; ILIA: 5′-[…] (SEQ ID NO:71), 5′-[…] (SEQ ID NO:72), Probe #6; IL1B: 5′-[…] (SEQ ID NO:73), 5′-[…] (SEQ ID NO:74), Probe #78; IL6: 5′-[…] (SEQ ID NO:75), 5′-gaaggcagcaggcaacac (SEQ ID NO:76), Probe #45; IL8: 5′-[…] (SEQ ID NO:77), 5′-atggttccttccggtggt (SEQ ID NO:78), Probe #72; IL10: 5′-[…] (SEQ ID NO:79), 5′-[…] (SEQ ID NO:80), Probe #67; MMP3: 5′-[…] (SEQ ID NO:81), 5′-[…] (SEQ ID NO:82), Probe #36; PDGFA: 5′-[…] (SEQ ID NO:83), 5′-[…] (SEQ ID NO:84), Probe #80; VEGF: 5′-[…] (SEQ ID NO:85), 5′-[…] (SEQ ID NO:86), Probe #50; P21WAF1(CDKN1A): 5′-[…]
Background: In western blotting, separated proteins are transferred to a membrane and probed.

In experiment [3] the test system is bleomycin-induced fibrosis. The conditions noted are these: administration; Kida 2016, Genovese 2005; cited from earlier work.

Turning to `CCCCC/C=C/C=C1/C(=O)C=C[C@@H]1C/C=C\CCCC(=O)O` [15d-PGJ2], the “SASP factor mRNAs” value in experiment [1] is listed as “strongly induced”. For the same compound, in experiment [2], the p21 gene expression result is “induced” and the senescence-associated beta-galactosidase entry is “induced”. The p21 protein accumulation result in experiment [2] (immunoblot) was “induced”. In addition, in experiment [3], the bleomycin-induced fibrosis entry is “attenuate”.
